Measured values reported in patent publication US7524811B2, “Anti-angiogenic peptides from the N-terminus of endostatin” (Children's Medical Center Corporation, priority 2003, dated 2009).
Values joined by “and” are separate entries in the source; they are usually repeats but may differ in a detail not shown here. Identical values can stand only once. “Also recorded” adds a separate entry of the source. Blank lines part the entries; values can stand above or below the molecule they belong to. No end group written: not given here.

Tests used:
LLC tumors [1] = assay: Lewis lung carcinoma (LLC) tumor model, systemic s.c. treatment; format: in vivo, C57B1/6J mice; conditions: peptide s.c. twice a day, 2.8 mg/kg/d, vs PBS
Procedure: The murine LLC tumor model (O'Reilly et al. (1994) Cell, 79: 315-328) was used to further characterize these peptides because this tumor grows more rapidly than BxPC-3 cells, allowing for shorter treatment periods. Murine analogs of the endostatin peptides were synthesized. The only difference between the human and murine peptides was that murine P1 peptide contained 27 amino acids instead of 25 amino acids for human P1.
Control mice were treated with PBS. In these experiments, LLC cells were implanted into the s.c. dorsa of C57B1/6J mice, and systemically treated. Peptides (mP1, mP2, mP5, and mP6) were injected (s.c.) twice a day at a dose of 2.8 mg/kg/d, whereas endostatin and PBS were administered once a day at a dose of 20 mg/kg/d.
(§1) BxPC-3 and LLC cells were grown in cell culture as described above. […] Mice were shaved and the dorsal skin was cleaned with ethanol before tumor cell injection. A suspension of 5×10^6 tumor cells in 0.1 ml RPMI-1640 (for BxPC-3) or DMEM (for LLC) was injected subcutaneously (s.c.) into the dorsa of mice at the proximal midline. BxPC-3 cells were implanted in SCID mice and LLC in C57B1/6J mice.
Animals with Lewis Lung carcinoma (600-800 mm^3 tumors) were euthanized, and the skin overlying the tumor was cleaned with Betadine and ethanol. Tumor tissue was excised under aseptic conditions. A suspension of tumor cells in 0.9% normal saline was made by passage of viable tumor tissue through a sieve and a series of sequentially smaller hypodermic needles of diameter 22- to 30-gauge. The final concentration was adjusted to 1×10^7 cells/ml, and the suspension was placed on ice. The injection of tumor cells was performed as described above.
The mice were weighed and tumors were measured every 3-5 days in two diameters with a dial-caliper. Volumes were determined using the formula a^2×b×0.52 (where a is the shortest and b is the longest diameter). Data is represented as volume of treated tumor over control (T/C). At the completion of each experiment, the mice were euthanized with CO2 asphyxiation. Tumors were fixed in 10% buffered Formalin (Fisher Scientific, Fair Lawn, N.J.) and paraffin-embedded.
For treatment of tumor-bearing mice, tumor volumes were allowed to grow to approximately 100 mm^3, and mice were randomized. Treatment was performed by single bolus s.c. injections. Peptides were administered twice a day (every 12 hrs). Doses indicated for peptides were corrected for the purity of peptides (approximately 70%). For example, mice injected with 4 mg/kg/d peptide, were actually injected with 2.8 mg/kg/d after correction. The unpaired Student t-test was used for statistical analysis.

[2] = test system: human pancreatic tumor cells BxPC-3; assay: BxPC-3 tumor model, systemic s.c. treatment; format: in vivo, SCID mice; conditions: peptide s.c. twice a day, 7 mg/kg/d; for inhibition of BxPC-3 tumor: final measurement at 28 days, n=3, vs PBS
Procedure: These peptides were initially tested for anti-tumor activity employing the human pancreatic tumor cells BxPC-3 cells, which were implanted in the s.c. dorsa of SCID mice. For systemic treatment, human endostatin peptides, P1-P8, were administered subcutaneously (s.c.) twice a day at 7 mg/kg/d due to the high clearance rate from the mouse circulation. Full-length Fc-Endostatin, hFcES was administered subcutaneously only once per day at a dose of 20 mg/kg/d. PBS was used as a control.
Human BxPC-3 pancreatic adenocarcinoma and Lewis lung carcinoma (LLC) cells were grown and maintained as described earlier (Kisker et al. (2001) Cancer Res, 61:7669-7674; O'Reilly et al. (1994) Cell, 79: 315-328). For BxPC-3 tumor cell injection, cells were grown in 900-cm2 roller bottles. Human microvascular endothelial cells (HMVEC-d; Clonetics, Walkersville, Md.) were cultured in microvascular endothelial cell growth medium (EGM-2 MV; Clonetics) and maintained at 5% CO2 in a 37° C. humidified incubator. Recombinant human endostatin was a generous gift from EntreMed Corporation (Rockville, Md.) and recombinant human and murine FcEndostatin were prepared as described earlier (Bergers et al. (1999) Science, 284: 808-812). Human and murine endostatin peptides were synthesized by SynPep Corporation (Dublin, Calif.). Peptides were resuspended in PBS or 50 mM Tris, 150 mM NaCl, pH 7.5. PECAM, purified rat anti-mouse CD31, was obtained from BD Pharmingen (San Diego, Calif.) and human recombinant VEGF was obtained from the NIH (Bethesda, Md.).
as §1, with “BxPC-3 cells were implanted in SCID mice and LLC in C57B1/6J mice.” left out
The mice were weighed and tumors were measured every 3-5 days in two diameters with a dial-caliper. Volumes were determined using the formula a^2×b×0.52 (where a is the shortest and b is the longest diameter). […]

[3] = test system: human microvascular endothelial cells (HMVECs); assay: VEGF-induced endothelial cell migration, modified Boyden chamber; format: cell-based; conditions: VEGF 5 ng/ml; for concentration at which VEGF-induced EC migration was inhibited: 25 ng/ml peptide equimolar to 200 ng/ml endostatin
Procedure: Endostatin peptides were tested for anti-endothelial cell migration activity. Inhibition of VEGF-induced migration of human microvascular endothelial cells (HMVECs) was determined using several doses of endostatin peptides (FIG. 5). Human peptides were used because the cells were of human origin and the migration response of the HMVECs was assayed using a modified Boyden chamber. VEGF (5 ng/ml) was used a chemotactic agent and cells were challenged with human endostatin (Entremed; EM-ES), human Fc-Endostatin (nFcES), human P1 (hP1), human P2 (hP2), human P6 (hP6), and human P1-H1/3A (hP1-H1/3A). Total migration per membrane was quantified from the capture images using Scion Image Software (National Institutes of Health) and the unpaired Student T test was used for statistical analysis.
The motility response of HMVEC-d cells was assayed using a modified Boyden chamber. Cells were plated in T75-cm2 flasks at 0.5×10^6 cells per flask and allowed to grow for 48 h (˜70% confluent) prior to the migration assay. To facilitate cell adhesion, the upper membrane of a transwell ([…]; Costar) was coated with fibronectin ([…]; Becton Dickinson, Bedford, Mass.) for 1 h at 37° C. Coated membranes were rinsed with PBS and allowed to air dry immediately before use. Cells were detached by trypsinization, treated with trypsinization neutralization solution (Clonetics), and resuspended at a final concentration of 1×10^6 cells/ml in serum-free endothelial basal medium (EBM; Clonetics) containing 0.1% BSA. Cells (200,000 in 0.2 ml) were then treated with 0.2 ml of EBM/BSA containing endostatin or peptides at the indicated concentrations. Cells were incubated for 20 min. at 37° C. with occasional shaking. Cells (50,000 in 100 μl) were added to the upper chamber of the transwell. EBM or EBM supplemented with VEGF (5 ng/ml) was added to the lower chamber and cells were allowed to migrate toward the bottom chamber for 4 h in a humidified incubator containing 5% CO2. Transwell filters were rinsed once with PBS and fixed and stained using a Diff-Quik staining kit (Baxter) following the manufacturer's protocol. Non-migrated cells were removed from the upper chamber with a cotton swab. Stained filters were cut out of the chamber and mounted onto slides using Permount (Fisher). The number of migrated cells was measured using microscopy (three fields from each membrane were captured using a 40x objective), and images were captured with a CCD camera using SPOT software. Total migration per membrane was quantified from the captured images using Scion Image software (National Institutes of Health). All experiments were run in triplicate. The unpaired Student t-test was used for statistical analysis.

LLC tumors [4] = assay: Lewis lung carcinoma (LLC) tumor model, systemic s.c. treatment; format: in vivo, C57B1/6J mice; conditions: peptide at 14 mg/kg/d
[5] = test system: vessel density (CD31) of LLC tumors; assay: Vessel density (CD31 staining) of LLC tumor sections; format: in vivo, C57B1/6J mice; conditions: peptide 2.8 mg/kg/d s.c. twice a day
Procedure: To determine the effect on angiogenesis after mP1 treatment, LLC tumors treated with mP1, mP2, and endostatin at equimolar concentration were analyzed for vessel density (CD31). […] In each case, peptides were administered twice a day s.c. and LLC tumor sections from day 13 were formalin-fixed paraffin-embedded and then stained with CD31 (PECAM). FIG. 2C show the determination of vessel density and the Y axis is expressed as % CD31/high power field (hpf).
To determine if Zn binding is also important for the anti-tumor property of endostatin, mP1 and mP1-H1/3A were tested using the LLC tumor model. Peptides were administered twice a day (s.c.) at a dose of 2.8 mg/kg/d. Peptide mPl inhibited LLC by 42% (p =0.031), whereas mPl-H1/3A had no effect (FIG. 3C). To determine if there was a difference in angiogenesis, vessel density (CD31) of LLC tumors was analyzed after mP1 and mP1-H1/3A treatment. […] The unpaired Student t test was used for statistical analysis.
Tumors were fixed in 10% buffered Formalin overnight at 4° C. The next day, tumors were washed three times in PBS and paraffin-embedded. Sections (5 μm) were permeabilized with 40 μg/ml proteinase K (Roche Diagnostics Corp.) in 0.2 M Tris-HCl buffer (pH 7.6) for 25 minutes at 37° C. and washed with PBS. PECAM (1:250) was incubated at 4° C. overnight. […] Vessel density (average of three fields) was determined by IPLab software. […]

[6] = Water solubility of peptides; format: physicochemical; conditions: high concentrations, read-out: concentration at which not water soluble
Procedure: Peptides were approximately 1/7th-1/8th the size of full length endostatin. Three cysteines, 33,165,173, were replaced by alanines (underlined in Table 1), and cysteinel35 was omitted, to prevent the formation of disulfide bonds. Two additional lysines were added at the C-terminal of hP8 to increase its solubility (double underlined). Most peptides were water soluble, except for hP2 at high concentrations (>2.5 mg/ml). Also, all peptides were approximately 70% pure. However, no difference in tumor inhibition was observed when peptides of more than 95% purity were used.

Molecule: ATAQDFQPVLHLVALNTPLSGGMRGIR [mP1-H1/3A]
anti-tumor effect on LLC (LLC tumors [1]; 2.8 mg/kg/day): no effect; also recorded: essentially not affected

Molecule: GSEGPLKPGARIFSFDGKDVLRHPT [hP5]
inhibition of BxPC-3 tumor [2]: 29%

Molecule: GSQGQVQPGARIFSFDGRDVLRHPA [mP5]
anti-tumor effect on LLC (LLC tumors [1]): No or insignificant activity

Molecule: HPAWPQKSVWHGSDPSGRRLMESY [mP6]
anti-tumor effect on LLC (LLC tumors [1]): No or insignificant activity

Molecule: HPTWPQKSVWHGSDPNGRRLTESY [hP6]
concentration at which VEGF-induced EC migration was inhibited [3]: 100 ng/mL and 200 ng/mL
inhibition of EC migration ([3]; concentrations lower than 100 ng/ml): no inhibition
inhibition of EC migration ([3]; several doses): inhibited EC migration but at higher concentrations than hPl

Molecule: HSHRDFQPVLHLVALNSPLSGGMRG [hP1]
inhibition of BxPC-3 tumor [2]: 39%
concentration at which VEGF-induced EC migration was inhibited [3]: 25 ng/mL
inhibition of EC migration ([3]; at 500 ng/ml): no inhibition
inhibition of EC migration ([3]; several doses): more potent in inhibiting EC migration than full-length endostatin

Molecule: HTHQDFQPVLHLVAL [mP1-15]
anti-tumor effect on LLC (LLC tumors [1]): inhibit tumor volume

Molecule: HTHQDFQPVLHLVALNTPLS [mP1-20]
anti-tumor effect on LLC (LLC tumors [1]): inhibit tumor volume

Molecule: HTHQDFQPVLHLVALNTPLSGGMRGIR [mP1]
inhibition of LLC tumor (LLC tumors [1]; 2.8 mg/kg/day): 44% and 42%
inhibition of LLC tumor formation (LLC tumors [4]): inhibited LLC tumor formation less than at 2.8 mg/kg/d

Molecule: MRGIRGA DFQAFQQARA VGLSGTFR (MRGIRGADFQAFQQARAVGLSGTFR) [mP2]
anti-tumor effect on LLC (LLC tumors [1]): No or insignificant activity
effect on vessel density (CD31) [5]: no effect
inhibition of LLC tumor formation (LLC tumors [4]): could inhibit LLC tumor formation as well as mP1 at 2.8 mg/kg/d

solubility [6]: > 2500 µg/mL
Molecule: MRGIRGADFQAFQQARAVGLAGTFR [hP2]

Molecule: TFRAFLSSRLQDLYSIVRRADRAAV [hP3]
anti-tumor effect on BxPC-3 ([2]; 28 days): failed to inhibit tumor growth

B1: human endostatin (EntreMed): recombinant human endostatin, gift from EntreMed Corporation (protein, UniProt P39060 1572-1754, looked up)
Endostatin: HSHRDFQPVLHLVALNSPLSGGMRGIRGADFQCFQQARAVGLAGTFRAFLSSRLQDLYSIVRRADRAAVPIVNLKDELLFPSWEALFSGSEGPLKPGARIFSFDGKDVLRHPTWPQKSVWHGSDPNGRRLTESYCETWRTEAPSATGQASSLLGGRLLGQSAASCHHAYIVLCIENSFMTASK
modifications: Endostatin
notes: recombinant human endostatin, gift from EntreMed Corporation
concentration at which VEGF-induced EC migration was inhibited [3]: 200 ng/mL
concentration of best (slightly better) inhibition of EC migration ([3]; U-shaped response): 200 ng/mL
inhibition of EC migration ([3]; at 100 ng/ml): not at 100 ng/ml
